Patent US20120277286A1, “COMPOSITIONS AND METHODS FOR THE TREATMENT OR PREVENTION OF MITOCHONDRIAL DISEASES” (The Government of the USA, as represented by the Secretary, …, priority 2009, published 2012)
*1 amine or outer side, *2 acyl side, *3 side chain or, on linkers, in order; H or OH if unused. Where a SMILES comes first, the peptide text is derived from it. Bridges are numbered along the chain shown (N, C = ends). Roman numbers before positions name the chains, in order. [ ]: non-standard residue; d: D form. Actinocin(9to1) = Cc1c2oc3c(C)ccc(C(=O)[*:1])c3nc-2c(C(=O)[*:2])c(N)c1=O; NMeV = CN[C@H](C(=O)O)C(C)C; Sar = CNCC(=O)O

Tested on: HeLa cells
Test: Parkin colocalization with mitochondria scored by confocal microscopy
Assay type: cell-based
Details: for effect on CCCP-induced Parkin recruitment to mitochondria: HeLa cells expressing YFP-Parkin, added together with CCCP; for spontaneous translocation of mutant YFP-Parkin to mitochondria: without CCCP
Experimental: Cultured cells seeded in borosilicate chamber slides (Thermo Fisher Scientific) were transfected or cotransfected with YFP-Parkin, ECFP-Parkin, mCherry-Parkin, DsRed-Mito (Clontech Laboratories, Inc.), pcDNA3.1 (Invitrogen), vMIA, and/or Drp1K38A constructs using Fugene 6 (Roche). Parkin-myc was a gift from M. Cookson (National Institutes of Health, Bethesda, Md.). Cells were fixed 12-24 hours after transfection with 4% paraformaldehyde in PBS. Cells were stained with following primary antibodies: mouse monoclonal cytochrome c (BD), rabbit polyclonal Tom20 (Santa Cruz Biotechnology, Inc.), mouse monoclonal Parkin PRK8 (Santa Cruz Biotechnology, Inc.), rabbit polyclonal PMP70 (Invitrogen), and/or mouse monoclonal TRAP1 (Abcam); and with the following secondary antibodies: mouse and/or rabbit Alexa 488, 594, and 633 (Invitrogen). For assessment of mitochondrial membrane potential, cells were pulsed with 50 nM Mito-Tracker red (Invitrogen) for 15 min, washed, and incubated for an additional 10 minutes before fixation or imaging. For assessment of cell metabolic potential, cell nuclei were stained with Hoechst 33342 (Invitrogen).
Fixed cells and live cells in the FLIP assay were imaged using an inverted microscope (LSM510 Meta; Carl Zeiss, Inc.) with a 63×/1.4 oil DIC Plan Apo objective at 25° C. and 37° C., respectively. For the FLIP assay, a bleach region of interest (ROI) occupying approximately one eighth of the cell was positioned over a relatively mitochondria-free portion of the cytosol. Cells were alternately bleached (488 nm using a 30-mW argon laser at 75% power and 100% transmission for 150 iterations) and imaged (488 nm at 75% power and 2% transmission) for 10 minutes (—60 cycles over the length of the experiment). Two channel prebleach and postbleach images were obtained with 488 and 594 lasers to assess the position of mitochondria before and after bleaching. Circular ROIs with diameters of ˜1 and 5 μm, respectively, were placed over the mitochondria and cytosol of the target cell, and an ROI of 10 μm was placed over the control cell. Imaging of YFP-Parkin translocation in live HeLa cells was performed on a live cell imager system (UltraView LCI; PerkinElmer) at 35° C. with a 100×/1.45 α-Plan-Fluor objective.
Image contrast and brightness were adjusted in Photoshop (Adobe). Colocalization was assessed with line scans using MetaMorph (MDS Analytical Technologies). For analysis of mitochondrial membrane potential in cells, mitochondrial voxels in each image (the cytochrome c channel threshold was ≧400 au) were segregated into Parkin-positive (the YFP-Parkin channel threshold was ≧1,100 au) or Parkin-negative subsets, and MitoTracker intensity for each voxel was measured using Volocity software (Improvision). For each cell, the mean MitoTracker intensity per voxel was calculated for the Parkin-positive and Parkin-negative subsets. The difference in mean Mito-Tracker intensity between the Parkin-positive and Parkin-negative subsets was calculated using a paired t test. Western blotting HeLa cells stably expressing YFP-Parkin, HEK293 cells, and rat cortical neurons 2 days in vitro were harvested and fractionated as described previously (Karbowski et al., J. Cell Biol. 178: 71-84, 2007). Samples were run on SDS-PAGE and immunoblotted with the following antibodies: polyclonal rabbit anti-GFP (Invitrogen), mouse monoclonal anti-Parkin (PRK8), and mouse monoclonal anti-Porin 31HL (EMD).
Confocal microscopy of fixed samples, scoring of Parkin recruitment and Parkininduced mitophagy, and live cell imaging were performed as described previously (Narendra (2008) J Cell Biol 183: 795-803). Experiments in Mfn1/2 null cells were performed as described previously with minor modifications.
Confocal microscopy of fixed samples, scoring of Parkin recruitment and Parkin-induced mitophagy, and live cell imageing were performed as described previously (Narendra (2008) J Cell Biol 183: 795-803). […]

| Molecule | effect on CCCP-induced Parkin recruitment to mitochondria | spontaneous translocation of mutant YFP-Parkin to mitochondria (HeLa) | other results |
| --- | --- | --- | --- |
| CC(=O)N[C@@H](CS)C(=O)O [N-acetyl-cysteine, reference compound] | not blocked |  |  |
| Cc1c2oc3c(C)ccc(C(=O)N[C@@H]4C(=O)N[C@H](C(C)C)C(=O)N5CCC[C@H]5C(=O)N(C)CC(=O)N(C)[C@@H](C(C)C)C(=O)O[C@@H]4C)c3nc-2c(C(=O)N[C@@H]2C(=O)N[C@H](C(C)C)C(=O)N3CCC[C@H]3C(=O)N(C)CC(=O)N(C)[C@@H](C(C)C)C(=O)O[C@@H]2C)c(N)c1=O [actinomycin D, reference compound] (I: T[dV]P[Sar][NMeV] / II: T[dV]P[Sar][NMeV]; ester I:1-I:C, II:1-II:C; linker I:N-II:N via Actinocin(9to1)) | modest effect |  |  |
| CC[C@H]1/C=C/C=C/C[C@@H](C)[C@H](O)[C@@](C)(O)C(=O)[C@@H](C)[C@H](O)[C@@H](C)C(=O)[C@@H](C)[C@H](O)[C@@H](C)/C=C/C(=O)O[C@@H]2[C@H](C)[C@H](CC1)O[C@]1(CC[C@H](C)[C@H](C[C@@H](C)O)O1)[C@H]2C [oligomycin, reference compound] | not inhibited |  | YFP-Parkin colocalization with mitochondria, % of cells (HeLa cells, 10 μM CCCP+10 μM oligomycin, 1 hour): 77.35±7.64% |
| PINK1-YFP: YFP fused to PINK1 (protein, UniProt Q9BXM7 78-581, looked up, YFP fusion) Serine/threonine-protein …: AARLQRQFVVRAWGCAGPCGRAVFLAFGLGLGLIEEKQAESRRAVSACQEIQAIFTQKSKPGPDPLDTRRLQGFRLEEYLIGQSIGKGCSAAVYEATMPTLPQNLEVTKSTGLLPGRGPGTSAPGEGQERAPGAPAFPLAIKMMWNISAGSSSEAILNTMSQELVPASRVALAGEYGAVTYRKSKRGPKQLAPHPNIIRVLRAFTSSVPLLPGALVDYPDVLPSRLHPEGLGHGRTLFLVMKNYPCTLRQYLCVNTPSPRLAAMMLLQLLEGVDHLVQQGIAHRDLKSDNILVELDPDGCPWLVIADFGCCLADESIGLQLPFSSWYVDRGGNGCLMAPEVSTARPGPRAVIDYSKADAWAVGAIAYEIFGLVNPFYGQGKAHLESRSYQEAQLPALPESVPPDVRQLVRALLQREASKRPSARVAANVLHLSLWGEHILALKNLKLDKMVGWLLQQSAATLLANRLTEKCCVETKMKMLFLANLECETLCQAALLLCSWRAAL |  |  | cells with mCherry-Parkin recruited to mitochondria (HeLa, co-expression, absence of CCCP): 57.9±1.8% |
| T175E: phosphomimetic YFP-Parkin mutant (protein, UniProt O60260 1-465, looked up, variant T175E, YFP fusion, phosphomimetic YFP-Parkin mutant) E3 ubiquitin-protein ligase …: MIVFVRFNSSHGFPVEVDSDTSIFQLKEVVAKRQGVPADQLRVIFAGKELRNDWTVQNCDLDQQSIVHIVQRPWRKGQEMNATGGDDPRNAAGGCEREPQSLTRVDLSSSVLPGDSVGLAVILHTDSRKDSPPAGSPAGRSIYNSFYVYCKGPCQRVQPGKLRVQCSTCRQATLELTQGPSCWDDVLIPNRMSGECQSPHCPGTSAEFFFKCGAHPTSDKETSVALHLIATNSRNITCITCTDVRSPVLVFQCNSRHVICLDCFHLYCVTRLNDRQFVHDPQLGYSLPCVAGCPNSLIKELHHFRILGEEQYNRYQQYGAEECVLQMGGVLCPRPGCGAGLLPEPDQRKVTCEGGNGLGCGFAFCRECKEAYHEGECSAVFEASGTTTQAYRVDERAAEQARWEAASKETIKKTTKPCPRCHVPVEKNGGCMHMKCPQPQCRLEWCWNCGCEWNRVCMGDHWFDV |  | did not translocate to mitochondria spontaneously |  |
| T217E: phosphomimetic YFP-Parkin mutant (protein, UniProt O60260 1-465, looked up, variant T217E, YFP fusion, phosphomimetic YFP-Parkin mutant) E3 ubiquitin-protein ligase …: MIVFVRFNSSHGFPVEVDSDTSIFQLKEVVAKRQGVPADQLRVIFAGKELRNDWTVQNCDLDQQSIVHIVQRPWRKGQEMNATGGDDPRNAAGGCEREPQSLTRVDLSSSVLPGDSVGLAVILHTDSRKDSPPAGSPAGRSIYNSFYVYCKGPCQRVQPGKLRVQCSTCRQATLTLTQGPSCWDDVLIPNRMSGECQSPHCPGTSAEFFFKCGAHPESDKETSVALHLIATNSRNITCITCTDVRSPVLVFQCNSRHVICLDCFHLYCVTRLNDRQFVHDPQLGYSLPCVAGCPNSLIKELHHFRILGEEQYNRYQQYGAEECVLQMGGVLCPRPGCGAGLLPEPDQRKVTCEGGNGLGCGFAFCRECKEAYHEGECSAVFEASGTTTQAYRVDERAAEQARWEAASKETIKKTTKPCPRCHVPVEKNGGCMHMKCPQPQCRLEWCWNCGCEWNRVCMGDHWFDV |  | did not translocate to mitochondria spontaneously |  |
